Data as given in the NIST ThermoML archive (doi:10.1016/j.fluid.2017.12.010).

Assay: xn = mol fraction of the nth substance listed
Conditions: Liquid, Vibrating tube method, x1 = 1

CCCCCCCCCC [decane] + CCCCCCCCCCCC
Conditions	mass density [kg/m3]
283.55 K, 5000 kPa	742
283.56 K, 3000 kPa	740
283.56 K, 20000 kPa	752
283.56 K, 30000 kPa	758
283.56 K, 40000 kPa	763
283.56 K, 50000 kPa	769
283.56 K, 60000 kPa	774
283.56 K, 70000 kPa	779
283.56 K, 80000 kPa	783
283.56 K, 90000 kPa	788
283.57 K, 1000 kPa	739
283.57 K, 10000 kPa	745
283.58 K, 100 kPa	738
293.48 K, 100 kPa	731
293.48 K, 1000 kPa	731
293.49 K, 5000 kPa	734
293.49 K, 10000 kPa	738
293.49 K, 20000 kPa	745
293.5 K, 30000 kPa	751
293.5 K, 40000 kPa	757
293.5 K, 50000 kPa	763
293.5 K, 100000 kPa	787
293.51 K, 60000 kPa	768
293.51 K, 70000 kPa	773
293.51 K, 80000 kPa	778
293.51 K, 90000 kPa	783
303.42 K, 100 kPa	723
303.42 K, 1000 kPa	724
303.42 K, 10000 kPa	731
303.42 K, 30000 kPa	745
303.42 K, 40000 kPa	751
303.42 K, 70000 kPa	768
303.42 K, 80010 kPa	773
303.42 K, 90000 kPa	777
303.43 K, 5000 kPa	727
303.43 K, 20000 kPa	738
303.43 K, 50000 kPa	757
303.43 K, 60000 kPa	762
303.43 K, 100000 kPa	782
313.35 K, 100 kPa	716
313.35 K, 1000 kPa	717
313.35 K, 5000 kPa	721
313.35 K, 40000 kPa	746
313.36 K, 20000 kPa	732
313.36 K, 50000 kPa	752
313.36 K, 70000 kPa	763
313.36 K, 80000 kPa	768
313.36 K, 90000 kPa	773
313.36 K, 100000 kPa	777
313.37 K, 10000 kPa	725
313.37 K, 30000 kPa	739
313.37 K, 60000 kPa	757
323.24 K, 100 kPa	708
323.24 K, 1000 kPa	709
323.24 K, 100000 kPa	771
323.25 K, 5000 kPa	712
323.25 K, 10000 kPa	717
323.25 K, 20000 kPa	725
323.25 K, 30000 kPa	732
323.25 K, 40000 kPa	739
323.25 K, 50000 kPa	745
323.25 K, 60000 kPa	751
323.25 K, 70000 kPa	757
323.25 K, 80000 kPa	762
323.25 K, 90000 kPa	767
333.12 K, 5000 kPa	705
333.12 K, 10000 kPa	710
333.12 K, 20000 kPa	718
333.13 K, 100 kPa	700
333.13 K, 1000 kPa	701
333.13 K, 30000 kPa	726
333.13 K, 80000 kPa	757
333.13 K, 90000 kPa	762
333.13 K, 100000 kPa	767
333.14 K, 40000 kPa	733
333.14 K, 50000 kPa	740
333.14 K, 60000 kPa	746
333.14 K, 70000 kPa	751
343.01 K, 100 kPa	693
343.01 K, 1000 kPa	694
343.01 K, 10000 kPa	703
343.01 K, 20000 kPa	712
343.01 K, 30000 kPa	720
343.01 K, 40000 kPa	727
343.01 K, 50000 kPa	734
343.01 K, 60000 kPa	740
343.02 K, 5000 kPa	698
343.02 K, 70000 kPa	746
343.02 K, 80000 kPa	752
343.02 K, 90000 kPa	757
343.02 K, 100000 kPa	762
352.87 K, 100 kPa	686
352.87 K, 1000 kPa	687
352.87 K, 5000 kPa	691
352.88 K, 10000 kPa	696
352.88 K, 20000 kPa	706
352.88 K, 30000 kPa	714
352.88 K, 40000 kPa	722
352.88 K, 50000 kPa	729
352.88 K, 60000 kPa	735
352.89 K, 70000 kPa	741
352.89 K, 80000 kPa	747
352.89 K, 90000 kPa	753
352.89 K, 100000 kPa	758
362.69 K, 100 kPa	677
362.69 K, 1000 kPa	678
362.7 K, 5000 kPa	683
362.7 K, 10000 kPa	689
362.71 K, 20000 kPa	699
362.71 K, 30000 kPa	708
362.71 K, 40000 kPa	716
362.71 K, 50000 kPa	723
362.71 K, 60000 kPa	730
362.72 K, 70000 kPa	736
362.72 K, 80000 kPa	742
362.72 K, 90000 kPa	747
362.72 K, 100000 kPa	753
